Results: the RepoRT retention time repository (doi:10.1016/j.jhazmat.2019.121712)

Assay: Thermo Scientific Acclaim RSLC 120 C18, 100 × 2.1 mm, 2.2 µm, 30 °C; A: 90% water + 10% methanol + 0.01% formic acid + 5 mM ammonium formate; B: methanol + 0.01% formic acid + 5 mM ammonium formate; gradient (min/%B) 0.1/1 3/39 14/99.9 16/99.9
Conditions: stereoisomer not certain

Q: Which LC retention time does the source give for c1cnc2cc3c(cc2n1)C1CNCC3C1 here?
A: 3.63 min

Q: With O=C(c1cccc2ccccc12)c1cn(CCN2CCOCC2)c2ccccc12 as the compound, how does the LC retention time read?
A: 9.88 min

Q: Which LC retention time does the source give for CN(C)CCc1c[nH]c2ccc(CC3COC(=O)N3)cc12 (centres undefined) here?
A: 3.61 min

Q: Which LC retention time does the source give for CNC(=O)CSP(=O)(OC)OC here?
A: 3.35 min

Q: With CCOc1cc(NC(C)=O)ccc1C(=O)OC as the compound, how does the LC retention time read?
A: 6.63 min

Q: For CNC(=O)Oc1ccc2c(c1)C1(C)CCN(C)C1N2C (centres undefined), which LC retention time is on record?
A: 3.89 min

Q: With CCOP(=S)(OCC)Oc1ccc(=O)n(-c2ccccc2)n1 as the compound, how does the LC retention time read?
A: 9.79 min

Q: Which LC retention time does the source give for N#Cc1ccc(C(c2ccc(C#N)cc2)n2cncn2)cc1 here?
A: 6.33 min

Q: For Cc1cccc(OCC(O)CNC(C)C)c1 (centres undefined), which LC retention time is on record?
A: 5.29 min

Q: For O=C(O)CCCCn1cc(C(=O)c2cccc3ccccc23)c2ccccc21, which LC retention time is on record?
A: 9.71 min

Q: With CCC(CC)Nc1c([N+](=O)[O-])cc(C)c(C)c1[N+](=O)[O-] as the compound, how does the LC retention time read?
A: 12.8 min

Q: With CCCN(CCC)C(=O)SCc1ccccc1 as the compound, how does the LC retention time read?
A: 11.9 min

Q: With CC(C)(N)Cc1ccccc1 as the compound, how does the LC retention time read?
A: 4.64 min

Q: For CCCc1cc(C(N)=S)ccn1, which LC retention time is on record?
A: 6.36 min

Q: For CN1CCCC1c1cccnc1 (centres undefined), which LC retention time is on record?
A: 2.41 min

Q: Which LC retention time does the source give for CCOP(=S)(OCC)Oc1cnc2ccccc2n1 here?
A: 10.8 min

Q: For CC12CCC(=O)C=C1C=CC1C2CCC2(C)C1CCC21CCC(=O)O1 (centres undefined), which LC retention time is on record?
A: 9.77 min

Q: For CC(C)Cc1ccc(C(C)C(=O)O)cc1 (centres undefined), which LC retention time is on record?
A: 10.7 min

Q: With CC1=C(C(=O)Nc2ccccc2)S(=O)(=O)CCO1 as the compound, how does the LC retention time read?
A: 5.59 min

Q: With C=C1CC2C(CCC3(C)C(=O)CCC23)C2(C)C=CC(=O)C=C12 (centres undefined) as the compound, how does the LC retention time read?
A: 9.03 min

Q: With CC(=O)OCCC(SC(C)=O)=C(C)N(C=O)Cc1cnc(C)nc1N as the compound, how does the LC retention time read?
A: 4.46 min

Q: Which LC retention time does the source give for COC(=O)C(C)N(C(=O)Cc1ccccc1)c1c(C)cccc1C (centres undefined) here?
A: 10.9 min

Q: With COP(N)(=S)Oc1ccccc1C(=O)OC(C)C (centres undefined) as the compound, how does the LC retention time read?
A: 8.32 min

Q: With CNC(=O)Oc1cc(C)c(SC)c(C)c1 as the compound, how does the LC retention time read?
A: 9.34 min

Q: With CNC(=O)C=C(C)OP(=O)(OC)OC as the compound, how does the LC retention time read?
A: 4.36 min

Q: With CCOP(=S)(OCC)ON=C(C#N)c1ccccc1 as the compound, how does the LC retention time read?
A: 11.2 min

Q: Which LC retention time does the source give for CCOC(=O)CCN(SN(C)C(=O)Oc1cccc2c1OC(C)(C)C2)C(C)C here?
A: 11.9 min

Q: Which LC retention time does the source give for CC(=O)NCCCS(=O)(=O)O here?
A: 1.4 min

Q: Which LC retention time does the source give for CCCCCn1cc(C(=O)NC(C(N)=O)C(C)(C)C)c2ccccc21 (centres undefined) here?
A: 11.1 min

Q: Which LC retention time does the source give for CCNC1CC(C)S(=O)(=O)c2sc(S(N)(=O)=O)cc21 (centres undefined) here?
A: 3.19 min

Q: For CCC(=O)c1ccc2c(c1)N(CCCN(C)C)c1ccccc1S2, which LC retention time is on record?
A: 8.49 min

Q: For CCNc1nc(NC(C)(C)C)nc(OC)n1, which LC retention time is on record?
A: 9.16 min

Q: With CNC(=O)N(C)c1nnc(C(C)(C)C)s1 as the compound, how does the LC retention time read?
A: 7.25 min

Q: With CCC(=O)C1C(=O)CC(C(=O)O)CC1=O (centres undefined) as the compound, how does the LC retention time read?
A: 5.63 min

Q: Which LC retention time does the source give for Cn1c(=O)c2c(ncn2CC(O)CO)n(C)c1=O (centres undefined) here?
A: 3.76 min

Q: With CCCC1CC(C(=O)NC(C(C)O)C2OC(SC)C(O)C(O)C2O)N(C)C1 (centres undefined) as the compound, how does the LC retention time read?
A: 4.08 min

Q: With CC(=O)Oc1ccc2c3c1OC1C(OC(C)=O)C=CC4C(C2)N(C)CCC341 (centres undefined) as the compound, how does the LC retention time read?
A: 4.63 min

Q: For CCC1OC(=O)C(C)C(OC2CC(C)(OC)C(O)C(C)O2)C(C)C(OC2OC(C)CC(N(C)C)C2O)C(C)(O)CC(C)C(=O)C(C)C(O)C1(C)O (centres undefined), which LC retention time is on record?
A: 8 min

Q: With Cc1cccc2sc3nncn3c12 as the compound, how does the LC retention time read?
A: 5.93 min

Q: Which LC retention time does the source give for N=c1nc(N2CCCCC2)cc(N)n1O here?
A: 4.88 min

Q: With O=C1CN=C(c2ccccc2)c2c(sc3c2CCCC3)N1 as the compound, how does the LC retention time read?
A: 9.49 min

Q: For CC(C)(C)c1ccc(C(O)CCCN2CCC(C(O)(c3ccccc3)c3ccccc3)CC2)cc1 (centres undefined), which LC retention time is on record?
A: 9.69 min

Q: Which LC retention time does the source give for CCOP(=S)(OCC)SCn1nnc2ccccc2c1=O here?
A: 10.2 min

Q: For CCC(NC)C(=O)c1ccccc1 (centres undefined), which LC retention time is on record?
A: 4.26 min

Q: With CN1CCC(=C2c3ccccc3CC(=O)c3sccc32)CC1 as the compound, how does the LC retention time read?
A: 5.54 min

Q: Which LC retention time does the source give for CCCCSP(=O)(SCCCC)SCCCC here?
A: 13.4 min

Q: With COC=C(C(=O)OC)c1ccccc1Oc1cc(Oc2ccccc2C#N)ncn1 as the compound, how does the LC retention time read?
A: 9.02 min

Q: With CN1CCC(N(Cc2ccccc2)c2ccccc2)CC1 as the compound, how does the LC retention time read?
A: 7.77 min

Q: With CC(Cc1ccc(C(C)(C)C)cc1)CN1CCCCC1 (centres undefined) as the compound, how does the LC retention time read?
A: 8.62 min

Q: Which LC retention time does the source give for CCCc1nc(C)c2c(=O)[nH]c(-c3cc(S(=O)(=O)N4CCN(CCO)CC4)ccc3OCC)nn12 here?
A: 8.05 min

Q: Which LC retention time does the source give for CC(=O)Nc1ccc(OCC(O)CNC(C)C)cc1 (centres undefined) here?
A: 3.34 min

Q: With COC(=O)c1ccccc1C(=O)OC as the compound, how does the LC retention time read?
A: 6.63 min

Q: Which LC retention time does the source give for CSc1nc(NC2CC2)nc(NC(C)(C)C)n1 here?
A: 10.5 min

Q: With CCCCCn1c2ccccc2c2cc(C(=O)c3cccc4ccccc34)ccc21 as the compound, how does the LC retention time read?
A: 14.2 min

Q: For CCNc1nc(NC(C)(C)C)nc(SC)n1, which LC retention time is on record?
A: 10.2 min

Q: For CC(C)(C)c1n[nH]c(=O)n(N)c1=O, which LC retention time is on record?
A: 5.89 min

Q: For CN(C)CCCN1c2ccccc2Sc2cccnc21, which LC retention time is on record?
A: 7.21 min

Q: Which LC retention time does the source give for NCC1CCC(C(=O)O)CC1 (centres undefined) here?
A: 1.79 min

Q: Which LC retention time does the source give for COC(=O)C1=C(C)NC(C)=C(C(=O)OCCN(C)Cc2ccccc2)C1c1cccc([N+](=O)[O-])c1 (centres undefined) here?
A: 8.39 min
